The text below walks through data of US20060084652A1, “Alkylidene-tetrahydronaphthalene derivatives, process for their production and their use as anti-inflammatory agents” (priority 2004, published 2006).

For test [1], the target named is T1, glucocorticoid receptor (GR) (Homo sapiens, UniProt P04150).
T1 construct: made in house; host or cells: Sf9 cells infected with recombinant baculovirus (cytosol preparation)
T1 sequence (P04150 1-777): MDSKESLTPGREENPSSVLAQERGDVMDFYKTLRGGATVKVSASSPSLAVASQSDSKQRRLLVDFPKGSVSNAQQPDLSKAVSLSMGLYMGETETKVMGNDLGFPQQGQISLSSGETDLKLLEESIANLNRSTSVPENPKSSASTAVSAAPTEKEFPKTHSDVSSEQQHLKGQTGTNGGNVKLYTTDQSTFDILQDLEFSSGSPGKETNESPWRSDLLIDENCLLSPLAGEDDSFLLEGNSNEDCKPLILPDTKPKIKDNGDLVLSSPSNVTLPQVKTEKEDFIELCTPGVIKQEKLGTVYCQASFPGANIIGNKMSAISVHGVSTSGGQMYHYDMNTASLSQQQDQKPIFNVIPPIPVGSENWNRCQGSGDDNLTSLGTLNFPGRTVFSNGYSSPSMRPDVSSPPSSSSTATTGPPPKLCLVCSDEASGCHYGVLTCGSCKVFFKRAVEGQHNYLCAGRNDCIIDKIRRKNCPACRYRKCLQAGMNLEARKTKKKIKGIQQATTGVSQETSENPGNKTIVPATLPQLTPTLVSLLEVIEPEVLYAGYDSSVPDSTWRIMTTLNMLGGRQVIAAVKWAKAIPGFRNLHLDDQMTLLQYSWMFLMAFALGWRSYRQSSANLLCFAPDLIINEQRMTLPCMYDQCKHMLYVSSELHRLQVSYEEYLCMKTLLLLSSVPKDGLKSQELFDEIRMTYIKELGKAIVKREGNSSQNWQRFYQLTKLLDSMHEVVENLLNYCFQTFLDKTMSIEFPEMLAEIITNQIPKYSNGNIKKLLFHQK
In words: Binding to the glucocorticoid receptor, cytosol preparations of Sf9 cells, [3H]-dexamethasone as reference. The note with it: recombinant GR. An excerpt:
The binding of substances to the glucocorticoid receptor (GR) and other steroid-hormone receptors (mineral corticoid receptor (MR), progesterone receptor (PR) and androgen receptor (AR)) is examined with the aid of recombinantly produced receptors. Cytosol preparations of Sf9 cells, which had been infected with recombinant baculoviruses that code for the GR, are used for the binding studies. In comparison to the reference substance [^3H]-dexamethasone, the substances show a high affinity to the GR. IC50(GR)=20 nM and IC50(PR)>1 μM were measured for the compound from Example 1, and IC50(GR)=30 nM and IC50(PR)>1 μM were measured for the compound from Example 2.

The test system of test [2] is secretion of cytokine IL-8 in monocyte cell line THP-1. Kind of test: Inhibition of LPS-triggered IL-8 secretion in THP-1 cells (ELISA). In kind it is cell-based, human. On the procedure:
The concentration of the cytokines was determined in the supernatant by means of commercially available ELISA kits.

For `C/C=C1/C[C@@](O)(C(F)(F)F)[C@H](Nc2cccc3nc(C)ccc23)c2ccc(F)cc21` (relative stereo) [Example 1, (cis, Z)-4-Ethylidene-6-fluoro-1-[(2-methylquinolin-5-yl)amino]-2-(trifluoromethyl)-1,2,3,4-tetrahydronaphthalen-2-ol], the IC50 in test [1] was 0.02 µM; in test [2] (THP-1, supernatant ELISA, read-out: IC50(IL8)), 0.0064 µM. In test [2] (IL-8 inhibition, THP-1), the “efficiency relative to [3H]-dexamethasone as a standard” value stood at 90%.
On to “(cis, Z)-5-{[4-Ethylidene-6-fluoro-2,5-dihydroxy-2-(trifluoromethyl)-1,2,3,4-tetrahydronaphthalen-1-yl]amino}-quinolin-2(1H)-one [Example 2]”, for which the IC50 in test [1] stood at 0.03 µM.
